Assay results published in patent US20130053434A1, “IRREVERSIBLE INHIBITORS USEFUL FOR THE TREATMENT OF KINASE-RELATED PATHOLOGIES” (CENTRE NATIONAL DE LA RECHERCHE SCIENTIFIQUE, priority 2009, published 2013).

Tests used:
ERK2 = ERK2 (Homo sapiens, UniProt P28482); settings: Nakajima and Miyake; cited from earlier work
[1] = in vivo; cited from earlier work
[2] = inactivation by thiols such as DTT or GST; type: in vitro ADME
VEGFR2 = VEGFR2 (Homo sapiens, UniProt P35968); test: cellular inhibition of VEGFR2; type: cell-based; settings: triplicate
Description: FIG. 21. […] Assays were performed in triplicate.
To gage the undiscriminate reactivity of these enone resorcylic acids with thiols, fluoroenone 2 and the parent analogue lacking the fluoride were treated with one equivalent of DTT (2 mM) as a prototypical thiol nucleophile in PBS (pH 7.4) containing 1% DMSO. […] With fluoroenone 1 and 2 in hand, we tested their efficacy against VEGF-R2 which was frequently found to be the most inhibited kinase in our profile of cis-enone resorcylic acid library (Dakas, P. Y., et al. (2007) Angew. Chem. Int. Ed. Engl. 46, 6899-902; Jogireddy, R., et al. (2009) Chem. Eur. J. 15, 11498-506) and KIT which represents a less inhibited kinase. […] Their cellular activity against VEGF-R2 did parallel the biochemical activity. […] During the course of our investigation, a similar modification was reported by researchers from Esai (Du, H., et al. (2009) Bioorg. Med. Chem. Lett. 19, 6196-9) however, their medicinal chemistry efforts focused the inhibition of inflammation related pathways (MEKs and their down-stream regulatory effect on cytokines) (Du, H., et al. (2009) Bioorg. Med. Chem. Lett. 19, 6196-9; Goto, M., et al. (2009) J. Pharmacol. Exp. Ther. 331, 485-95). […]

plasma half-life = type: in vitro ADME
MEK = MEK (Homo sapiens, UniProt Q02750); settings: reported values; read-out: MEK inhibition; cited from earlier work
MEK, sequence (Q02750 whole entry): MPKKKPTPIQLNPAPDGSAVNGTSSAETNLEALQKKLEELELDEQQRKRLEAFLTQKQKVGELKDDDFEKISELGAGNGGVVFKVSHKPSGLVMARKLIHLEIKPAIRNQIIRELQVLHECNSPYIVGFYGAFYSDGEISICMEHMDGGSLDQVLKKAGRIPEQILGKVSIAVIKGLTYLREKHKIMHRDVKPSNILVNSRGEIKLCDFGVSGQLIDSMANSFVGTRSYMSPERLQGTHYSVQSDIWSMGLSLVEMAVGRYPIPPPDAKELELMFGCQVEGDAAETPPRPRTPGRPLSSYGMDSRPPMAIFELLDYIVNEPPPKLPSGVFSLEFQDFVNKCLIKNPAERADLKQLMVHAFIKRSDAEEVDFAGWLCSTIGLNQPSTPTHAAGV

ERK2, sequence (P28482 whole entry, species assumed): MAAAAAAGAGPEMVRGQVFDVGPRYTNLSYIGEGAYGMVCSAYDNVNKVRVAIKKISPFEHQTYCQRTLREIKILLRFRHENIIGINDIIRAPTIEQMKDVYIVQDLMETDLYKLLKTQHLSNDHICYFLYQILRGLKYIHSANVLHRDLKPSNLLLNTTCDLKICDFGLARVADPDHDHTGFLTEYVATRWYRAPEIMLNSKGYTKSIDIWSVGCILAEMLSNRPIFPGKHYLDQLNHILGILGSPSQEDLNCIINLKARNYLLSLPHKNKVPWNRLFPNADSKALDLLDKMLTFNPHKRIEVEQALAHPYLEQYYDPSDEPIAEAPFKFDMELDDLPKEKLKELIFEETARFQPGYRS
VEGFR2, sequence (P35968 20-1356, species assumed): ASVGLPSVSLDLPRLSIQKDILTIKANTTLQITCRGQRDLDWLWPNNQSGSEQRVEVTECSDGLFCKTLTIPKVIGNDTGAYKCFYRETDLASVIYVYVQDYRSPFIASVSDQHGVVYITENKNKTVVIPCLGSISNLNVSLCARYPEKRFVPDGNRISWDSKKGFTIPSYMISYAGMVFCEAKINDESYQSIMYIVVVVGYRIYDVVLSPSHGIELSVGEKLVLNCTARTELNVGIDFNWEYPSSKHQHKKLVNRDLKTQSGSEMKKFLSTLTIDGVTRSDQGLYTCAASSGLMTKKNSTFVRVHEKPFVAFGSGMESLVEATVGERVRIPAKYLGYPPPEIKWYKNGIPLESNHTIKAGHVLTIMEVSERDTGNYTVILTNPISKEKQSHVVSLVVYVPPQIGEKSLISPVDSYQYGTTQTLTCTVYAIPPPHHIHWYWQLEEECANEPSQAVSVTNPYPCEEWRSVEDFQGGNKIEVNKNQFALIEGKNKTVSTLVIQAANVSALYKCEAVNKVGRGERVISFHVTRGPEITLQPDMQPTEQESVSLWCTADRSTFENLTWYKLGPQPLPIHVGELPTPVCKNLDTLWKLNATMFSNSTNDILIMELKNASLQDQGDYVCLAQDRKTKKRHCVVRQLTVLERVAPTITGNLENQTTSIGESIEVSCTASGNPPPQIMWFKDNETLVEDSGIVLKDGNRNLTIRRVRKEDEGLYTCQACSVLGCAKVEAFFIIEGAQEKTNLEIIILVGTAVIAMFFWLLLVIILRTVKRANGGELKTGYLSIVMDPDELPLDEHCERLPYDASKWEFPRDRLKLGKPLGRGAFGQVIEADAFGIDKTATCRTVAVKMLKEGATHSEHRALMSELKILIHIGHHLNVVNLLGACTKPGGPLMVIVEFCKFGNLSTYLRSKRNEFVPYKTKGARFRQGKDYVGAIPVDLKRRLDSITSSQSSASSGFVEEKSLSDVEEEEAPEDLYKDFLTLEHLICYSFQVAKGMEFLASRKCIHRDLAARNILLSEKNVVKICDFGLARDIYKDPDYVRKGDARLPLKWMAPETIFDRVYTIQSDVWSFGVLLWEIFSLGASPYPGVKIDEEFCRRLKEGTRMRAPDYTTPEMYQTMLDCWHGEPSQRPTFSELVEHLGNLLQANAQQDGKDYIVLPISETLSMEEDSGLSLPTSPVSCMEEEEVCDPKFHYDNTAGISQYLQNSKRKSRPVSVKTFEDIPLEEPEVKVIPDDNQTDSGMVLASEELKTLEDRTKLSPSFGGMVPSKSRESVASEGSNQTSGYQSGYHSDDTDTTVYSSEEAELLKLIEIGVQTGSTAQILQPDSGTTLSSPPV

## COc1cc(O)c2c(c1)/C=C/C[C@H](O)[C@H](O)C(=O)/C=C\C[C@H](C)OC2=O [LL-Z1640-2]
ERK2
  difference in activity between LL-Z1640-2 and L-783277 in inhibition of ERK2: 50 fold
[1]
  efficacy in animal models: effective in animal models
[2]
  inactivation by thiols: inactivated by thiols such as DTT or GST
VEGFR2
  IC50: 6.5 nM
Plasma half-life
  plasma half-life: short plasma half-life
MEK
  IC50: 411 nM
